Values quoted from earlier work, collected in patent publication US10842805B2, “Compositions containing enriched natural crocin and/or crocetin, and their therapeutic or nutraceutical uses” (priority 2012, dated 2020).

Tested on: ethanol-induced inhibition of hippocampal long-term potentiation
Settings: mouse, in vivo

Structure (SMILES)	constituent to which the beneficial effect of saffron extract is attributed
CC(/C=C/C=C(\C)C(=O)O[C@@H]1O[C@H](CO[C@@H]2O[C@H](CO)[C@@H](O)[C@H](O)[C@H]2O)[C@@H](O)[C@H](O)[C@H]1O)=C\C=C\C=C(C)\C=C\C=C(/C)C(=O)O[C@@H]1O[C@H](CO[C@@H]2O[C@H](CO)[C@@H](O)[C@H](O)[C@H]2O)[C@@H](O)[C@H](O)[C@H]1O [crocin, Crocetin-di-beta-D-gentiobiosyl ester]	attributed to crocin
CC(/C=C/C=C(\C)C(=O)O)=C\C=C\C=C(C)\C=C\C=C(/C)C(=O)O [crocetin]	not crocetin
